Earlier results as cited in patent publication US7582314B2, “Compositions and methods for the management of hyperproliferative dermatological conditions” (Sami Labs Ltd., priority 2003, dated 2009).
Read-outs that look alike come from different tables or passages of the source.

Tests used:
[1] = system: damage to the skin induced by UV radiation; conditions: topical; human subjects
plaque psoriasis = conditions: oral supplementation; psoriasis patients
[2] = system: damage to the skin induced by UV radiation; conditions: topical; experimental animals

## C[Se]CC[C@H](N)C(=O)O [selenomethionine]
[1]
  degree of damage to the skin induced by UV radiation: reduces
Plaque psoriasis
  efficacy as adjuvant treatment in plaque psoriasis: ineffective
[2]
  degree of damage to the skin induced by UV radiation: reduces
